Data published in PubChem BioAssay (NCI).
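Cultured in 96-well plates, cells were exposed to test compound for 48 hours across five concentrations. The concentration for full growth arrest is given as TGI.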 Where a SMILES comes first, the peptide text is derived from it. The star is where a group is joined. Boc = CC(C)(C)OC(=O)*; OBn = c1ccc(CO*)cc1

Key:
Experiment in all cases: growth of human tumour cells (NCI), 48 h
MCF7 breast = test system: MCF7 breast
K-562 leukemia = test system: K-562 leukemia
786-0 renal = test system: 786-0 renal
HCT-15 colon = test system: HCT-15 colon
UACC-62 melanoma = test system: UACC-62 melanoma
RXF 393 renal = test system: RXF 393 renal
KM12 colon = test system: KM12 colon
MDA-MB-435 = test system: MDA-MB-435
SR leukemia = test system: SR leukemia
MDA-MB-231 breast = test system: MDA-MB-231 breast
T-47D breast = test system: T-47D breast
NCI/ADR-RES ovarian = test system: NCI/ADR-RES ovarian
HOP-62 NSCLC = test system: HOP-62 NSCLC
SF-295 CNS = test system: SF-295 CNS
ACHN renal = test system: ACHN renal

Measured: TGI

Nc1[nH]c(=S)c2c(N)n[nH]c2c1C(=O)Nc1ccc(Cl)cc1
not listed: HOP-62 NSCLC | SF-295 CNS | ACHN renal
> 100 µM: all other assays above

CC(=O)OCCOCCN1CCN(c2c(O)c3c(c(O)c2Cl)C(=O)C=CC3=O)CC1
2.81 µM: UACC-62 melanoma
1.21 µM: NCI/ADR-RES ovarian
1.93 µM: RXF 393 renal
0.757 µM: ACHN renal
4.54 µM: SR leukemia
2.77 µM: T-47D breast
1.95 µM: MDA-MB-435
4.92 µM: KM12 colon
7.1 µM: HOP-62 NSCLC
3.72 µM: SF-295 CNS
0.913 µM: 786-0 renal
1.23 µM: HCT-15 colon
1.09 µM: MDA-MB-231 breast
0.976 µM: MCF7 breast

CC#CCCCC1(C)CCCNC1=S (stereo not drawn)
not listed: HOP-62 NSCLC
> 10 µM: all other assays above

CC(=O)OC(=C(C#N)C#N)c1nccnc1C(C)=O
14 µM: KM12 colon
15.7 µM: RXF 393 renal
not listed: HOP-62 NSCLC
> 20 µM: all other assays above

CCCCCCCCCCCCCCCCOc1ccc(/C=C/C2=[N+](CCCl)CCO2)cc1
92.5 µM: SR leukemia
83.5 µM: MDA-MB-231 breast
not listed: RXF 393 renal
> 100 µM: all other assays above

Cc1nc2ccccc2c(=O)n1/N=C/c1ccc(N(C)C)cc1
not listed: K-562 leukemia | RXF 393 renal
> 100 µM: all other assays above

Cc1nn(-c2ccccc2)c2nc3ccc(Cl)cc3c(-c3ccccc3)c12
not listed: K-562 leukemia | RXF 393 renal
> 100 µM: all other assays above

C=CCN1C[C@@H](C)N([C@@H](c2ccc(C(=O)N(CC)CC)cc2)c2cccc(OC)c2)C[C@@H]1C
not listed: RXF 393 renal
> 100 µM: all other assays above

Cc1ccc(NC(=O)/C(=N\NC(N)=O)c2c(O)c3ccccc3[nH]c2=O)cc1
not listed: HOP-62 NSCLC
> 100 µM: all other assays above

CC(C)CC(NC(=O)C(Cc1ccccc1)NC(=O)C(Cc1ccccc1)NC(=O)OC(C)(C)C)C(=O)OCc1ccccc1 (stereo not drawn) (Boc-Phe-Phe-Leu-OBn; configuration not given here)
not listed: ACHN renal
> 100 µM: all other assays above

O=c1[nH]c(=O)n2n1C1C=CC2CC1
not listed: RXF 393 renal
> 100 µM: all other assays above

COc1ccc(-c2nc3cc(C(F)(F)F)ccc3n2CC2CCCN3CCCCC23)cc1 (stereo not drawn)
34.3 µM: MDA-MB-435
36.6 µM: SF-295 CNS
35.6 µM: 786-0 renal
27.7 µM: MDA-MB-231 breast
48.2 µM: T-47D breast
29 µM: ACHN renal
28 µM: K-562 leukemia
31.3 µM: SR leukemia
27.1 µM: NCI/ADR-RES ovarian
33.8 µM: RXF 393 renal
45.2 µM: KM12 colon
38.5 µM: HOP-62 NSCLC
29.1 µM: HCT-15 colon
25.9 µM: MCF7 breast

Cc1ccc([N+](=O)[O-])cc1S(=O)(=O)Nc1ccc(C2=NN(S(=O)(=O)c3cc([N+](=O)[O-])ccc3C)C(c3ccco3)C2)cc1 (stereo not drawn)
92.9 µM: T-47D breast
not listed: MDA-MB-231 breast
> 100 µM: all other assays above
